SMILES strings stand for the structures. Calls of active or inactive are those of the source. The rule behind the calls is not given here.

Experiment [1] has as its system Bipolaris leersiae. The experiment in a line: Antifungal activity against Bipolaris leersiae assessed as inhibition of conidial germination at 50 ppm after 24 hrs by microscopy. The class given is functional, organism-based.
In experiment [2] the test system is Bipolaris leersiae. As to the kind of experiment: Antifungal activity against Bipolaris leersiae assessed as inhibition of conidial germination at 300 ppm after 24 hrs by microscopy. The class given is functional.
The subject of experiment [3] is Bipolaris leersiae. The experiment in a line: Antifungal activity against Bipolaris leersiae assessed as inhibition of conidial germination at 100 ppm after 24 hrs by microscopy. Type of experiment: functional.
The subject of experiment [4] is Bipolaris leersiae. As to the kind of experiment: Antifungal activity against Bipolaris leersiae assessed as inhibition of conidial germination at 500 ppm after 24 hrs by microscopy. The class given is functional.
Experiment [5] has as its system Bipolaris leersiae. The experiment in a line: Antifungal activity against Bipolaris leersiae assessed as inhibition of conidial germination at 10 ppm after 24 hrs by microscopy. The class given is functional.
Experiment [6] relates to Bipolaris leersiae. The experiment in a line: Antifungal activity against Bipolaris leersiae assessed as inhibition of conidial germination at 1000 ppm after 24 hrs by microscopy. Type of experiment: functional, organism-based.

Regarding `COc1c(O)c(C)c(Cl)c(OC)c1Cl`, the outcome in the experiment on Bipolaris leersiae [1], in the experiment with Bipolaris leersiae [2], in the experiment with Bipolaris leersiae [3] and with Bipolaris leersiae [4] was Active.
As a reminder, the inhibition is the relative decrease from the control value, in per cent. Regarding `COc1c(O)c(C)c(Cl)c(O)c1Cl`, the result with Bipolaris leersiae [1], in the experiment with Bipolaris leersiae [2], in the experiment on Bipolaris leersiae [3] and in the experiment on Bipolaris leersiae [4] was Active. In the experiment with Bipolaris leersiae [5], the inhibition at 10 ppm stood at 80%.
With `Cc1cc(O)c(Cl)c(O)c1`, the outcome in the experiment with Bipolaris leersiae [2] and with Bipolaris leersiae [4] was Active. The inhibition at 100 ppm in the experiment on Bipolaris leersiae [3] is 80%.
Turning to `Cc1cc(O)cc(O)c1` [ORCINOL], in the experiment with Bipolaris leersiae [2], the inhibition at 300 ppm stood at 30%. For the same compound, the result with Bipolaris leersiae [6] was Active. Besides, the inhibition at 100 ppm in the experiment on Bipolaris leersiae [3] is 30%. The inhibition at 500 ppm in the experiment on Bipolaris leersiae [4] was found to be 80%.
Consider `COc1c(Cl)c(C)c(Cl)c(O)c1Cl`, for which the result with Bipolaris leersiae [1], in the experiment with Bipolaris leersiae [2], in the experiment on Bipolaris leersiae [5], in the experiment with Bipolaris leersiae [3] and in the experiment with Bipolaris leersiae [4] was Active.
As for `COc1cc(OC)c(Cl)c(C)c1Cl`, the outcome with Bipolaris leersiae [3] was inactive.
Regarding `Cc1cc(O)cc(O)c1Cl`, the outcome in the experiment with Bipolaris leersiae [2] and in the experiment with Bipolaris leersiae [4] was Active. For the same compound, the inhibition at 100 ppm in the experiment on Bipolaris leersiae [3] is 80%.

The record behind these values is ChEMBL document CHEMBL1150921, “Organochlorine compounds from a terrestrial higher plant: structures and origin of chlorinated orcinol derivatives from diseased bulbs of Lilium maximowiczii” (1998).
